Data as given in publication PMC12892976, “Alkylation-based optimization of antifungal FPPS inhibitors yields a potent, broad-spectrum lipophilic zoledronate derivative” (mBio, 2025).

What was measured:
Format in all cases: cell-based
[1] = system: Cryptococcus deuterogattii; assay: checkerboard drug interaction (FICI, MICc);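 on all read-outs here: simplified diagonal checkerboard screen pairing antifungal drugs with FPPS inhibitors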; conditions: for INH MICc: C. deuterogattii
Method: (§1) Drug interactions between antifungals and FPPS inhibitors were investigated using a simplified checkerboard diagonal screening method ([45]). […] FICIs were determined according to the Loewe additivity model ([17]).

[2] = system: Microsporum canis; assay: checkerboard drug interaction (FICI, MICc);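 further: simplified diagonal checkerboard screen pairing antifungals with FPPS inhibitors, FICI calculated under the Loewe additivity model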
Method: as §1

[3] = system: Aspergillus fumigatus; assay: checkerboard drug interaction (FICI, MICc);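 further: simplified diagonal checkerboard screen pairing antifungals with FPPS inhibitors against Aspergillus fumigatus, with FICI calculated under the Loewe additivity model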
Method: as §1

[4] = system: Candida albicans; assay: MIC/MFC broth microdilution (CLSI); conditions: Candida albicans SC5314
Method: (§2) Antifungal susceptibility was determined by broth microdilution according to the CLSI guidelines described in M27-Ed4 ([16]). […] MFC was determined by back-plating drug-treated cultures from MIC broths onto SDA plates. The MFC was defined as the lowest concentration from which no colonies could be cultured.

[5] = system: Saccharomyces cerevisiae; assay: MIC/MFC broth microdilution (CLSI); conditions: Saccharomyces cerevisiae S288c
Method: as §2

[6] = system: Trichophyton rubrum; assay: checkerboard drug interaction (FICI, MICc);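 further: simplified diagonal checkerboard screen pairing azole antifungals with FPPS inhibitors, FICI calculated under the Loewe additivity model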
Method: as §1

[7] = system: Cryptococcus neoformans; assay: checkerboard drug interaction (FICI, MICc);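 on all read-outs here: antifungal plus FPPS inhibitor pairs tested against Cryptococcus neoformans by simplified diagonal checkerboard screening, FICI computed under the Loewe additivity model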; conditions: for INH MICc: C. neoformans
Method: as §1

[8] = system: Aspergillus flavus; assay: checkerboard drug interaction (FICI, MICc); set-up: INH MICc (KET:INH) / INH MICc (FLC:INH): unit not given beside the values;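 further: simplified diagonal checkerboard screen pairing azole antifungals with FPPS inhibitors, FICI calculated under the Loewe additivity model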
[9] = FLC:INH combination, MIC of the inhibitor in combination with FLC
[10] = ITR:INH combination, MIC of the inhibitor in combination with ITR
[11] = KET:INH combination, MIC of the inhibitor in combination with KET

CCCCCCCCCCn1cc[n+](CC(O)(P(=O)(O)O)P(=O)(O)O)c1 [10-ZOL, Decyl-zoledronate]
INH MICc [1, 9]: 0.125 | INH MICc [1, 10]: 0.125 | INH MICc [1, 11]: 0.063 | bisphosphonate MICc ([1]; with 5FC): 1 | bisphosphonate MICc ([1]; with AMB): 0.063 | bisphosphonate MICc ([1]; with CAS): 1 | bisphosphonate MICc ([1]; with FLC): 0.125 | bisphosphonate MICc ([1]; with ITR): 0.125 | bisphosphonate MICc ([1]; with KET): 0.063 | bisphosphonate MICc ([1]; with VOR): 0.063 | FICI ([2]; 5FC:10-ZOL): 3 | FICI ([2]; CAS:10-ZOL): 2 | FICI ([2]; VOR:10-ZOL): 1.16 | bisphosphonate MICc ([2]; with 5FC): 1 | bisphosphonate MICc ([2]; with AMB): 0.25 | bisphosphonate MICc ([2]; with CAS): 1 | bisphosphonate MICc ([2]; with FLC): 0.25 | bisphosphonate MICc ([2]; with ITR): 0.5 | bisphosphonate MICc ([2]; with KET): 1 | bisphosphonate MICc ([2]; with VOR): 0.125 | FICI ([3]; 5FC:10-ZOL): 3 | FLC MICc ([3]; A. fumigatus, FLC:INH combination, MIC of FLC in combination with the inhibitor): 8 | INH MICc ([3]; A. fumigatus, FLC:INH combination, MIC of the inhibitor in combination with FLC): 0.5 | ITR MICc ([3]; A. fumigatus, ITR:INH combination, MIC of ITR in combination with the inhibitor): 0.063 | INH MICc ([3]; A. fumigatus, ITR:INH combination, MIC of the inhibitor in combination with ITR): 0.063 | KET MICc ([3]; A. fumigatus, KET:INH combination, MIC of KET in combination with the inhibitor): 0.25 | INH MICc ([3]; A. fumigatus, KET:INH combination, MIC of the inhibitor in combination with KET): 0.25 | FICI ([3]; CAS:10-ZOL): 1.5 | bisphosphonate MICc ([3]; with 5FC): 1 | bisphosphonate MICc ([3]; with AMB): 0.25 | bisphosphonate MICc ([3]; with CAS): 1 | bisphosphonate MICc ([3]; with FLC): 0.5 | bisphosphonate MICc ([3]; with ITR): 0.063 | bisphosphonate MICc ([3]; with KET): 0.25 | bisphosphonate MICc ([3]; with VOR): 0.25 | MFC [4]: 16 µg/mL | MIC [4]: 4 µg/mL | MIC / MEC [4]: 4 mg/L | MFC [5]: 8 µg/mL | MIC [5]: 1 µg/mL | MIC / MEC [5]: 1 mg/L | FICI ([6]; KET:10-ZOL): 0.5 | INH MICc (FLC:INH) ([6]; T. rubrum, MIC of the inhibitor in combination with fluconazole): 0.5 | INH MICc (ITR:INH) ([6]; T. rubrum, MIC of the inhibitor in combination with itraconazole): 0.5 | INH MICc (KET:INH) ([6]; T. rubrum, MIC of the inhibitor in combination with ketoconazole): 0.5 | FICI ([6]; VOR:10-ZOL): 0.5 | bisphosphonate MICc ([6]; with 5FC): 1 | bisphosphonate MICc ([6]; with AMB): 0.25 | bisphosphonate MICc ([6]; with CAS): 0.5 | bisphosphonate MICc ([6]; with FLC): 0.5 | bisphosphonate MICc ([6]; with ITR): 0.5 | bisphosphonate MICc ([6]; with KET): 0.5 | bisphosphonate MICc ([6]; with VOR): 0.5 | INH MICc [7, 9]: 0.125 | INH MICc [7, 10]: 0.063 | INH MICc [7, 11]: 0.063 | bisphosphonate MICc ([7]; with 5FC): 0.5 | bisphosphonate MICc ([7]; with AMB): 0.25 | bisphosphonate MICc ([7]; with CAS): 0.5 | bisphosphonate MICc ([7]; with FLC): 0.125 | bisphosphonate MICc ([7]; with ITR): 0.063 | bisphosphonate MICc ([7]; with KET): 0.063 | bisphosphonate MICc ([7]; with VOR): 0.25 | INH MICc (FLC:INH) ([8]; A. flavus, MIC of the inhibitor in combination with fluconazole): 0.063 | INH MICc (ITR:INH) ([8]; A. flavus, MIC of the inhibitor in combination with itraconazole): 0.125 | INH MICc (KET:INH) ([8]; A. flavus, MIC of the inhibitor in combination with ketoconazole): 0.125 | FICI ([8]; AMB:10-ZOL): 2 | FICI ([8]; FLC:10-ZOL): 0.53 | FICI ([8]; VOR:10-ZOL): 0.37 | bisphosphonate MICc ([8]; with 5FC): 1 | bisphosphonate MICc ([8]; with AMB): 2 | bisphosphonate MICc ([8]; with CAS): 2 | bisphosphonate MICc ([8]; with FLC): 0.063 | FICI ([8]; with FLC, Aspergillus flavus): 0.53 | bisphosphonate MICc ([8]; with ITR): 0.125 | bisphosphonate MICc ([8]; with KET): 0.125
